# Measurements taken from publication PMC12261321, “Inhibitors of the Bacterioferritin Ferredoxin Complex Dysregulate Iron Homeostasis and Kill and Biofilm-Embedded Cells” (ACS Infectious Diseases, 2025).
# Columns and labels:
# [1] = Determination of compound aqueous solubility in M63 media; assay type: physicochemical; conditions: in M63 media at 35 °C
# Experimental: Determination of Compound Aqueous Solubility. Compound stocks (100 mM in DMSO) were prepared from […]
# powder and then further diluted with DMSO to prepare 20 mM working solutions, which were diluted as needed […]
# in DMSO. 15 µL o f the DMSO solution was then d iluted to a final volume o f 1.0 mL in M63 media. Six solutions […]
# were prepared for each compound, each with a distinct concentration and 1.5% DMSO (v/v). 700 µL of each […]
# compound solution was transferred to a polystyrene 48-well plate (VWR), followed by acquisition of UV-vis […]
# spectra (300 to 700 nm) with the aid of an Epoch 2 microplate reader (B i o Te k ). […]
# Following the acquisition of UV-vis spectra, each of the wells in the plate was inspected under a […]
# microscope for evidence of precipitation. Evidence of precipitation at any given concentration was determined by observing a shift in the baseline of the UV-vis spectra relative to the blank (M63 media) and/or evidence of visual precipitation with the aid of a micros cope. […]
# recombinant Pa BfrB = target: T1, recombinant Pa BfrB (Pseudomonas aeruginosa, UniProt Q9HY79); test: Dissociation constant (Kd), fluorescence quenching titration of apo Pa BfrB; assay type: binding, P. aeruginosa
# T1 construct: made in house; host or cells: E. coli
# T1 sequence (Q9HY79 whole entry): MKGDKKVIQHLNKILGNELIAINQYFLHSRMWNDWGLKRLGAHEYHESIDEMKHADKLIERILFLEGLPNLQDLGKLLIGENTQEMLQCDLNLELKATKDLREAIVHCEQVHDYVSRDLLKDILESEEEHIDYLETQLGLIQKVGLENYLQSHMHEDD
# Experimental: Measurement of Dissociation Constant (Kd) R ecombinant Pa BfrB was expressed in E. coli and purified as previously reported.19 Apo-BfrB (devoid of heme) was utilized for the measurements to prevent heme-driven fluorescence quenching. A 0.5 mL solution contai ning 0.01 µM apo Pa-BfrB in PBS (pH = 7.4) containing0.5% DMSO was plac ed into a 1 cm quartz cuvette wh ere it was titrated with aliq uots of compound dissolved in a 50% (v/v) PBS/DMSO solution. The fluorescence quenching brought by the addition of each aliquot was monitored with the aid of an Agilent Cary Fluorometer , with excitation at 280 nm, emission at 320- 470 nm, 10 x10 nm slit width, and an average of 5 scans per spectrum. Th e binding assay included at least 8 aliquots spanning from ~ 0.1 […]
# A control titration was carried out by titrati ng compound into PBS buffer. The Kd was cal culated by fitting the data to equation S4, w here Fb is the fraction bound and Fmax is the fraction bound at saturating compound concentration.
# FFbb = FFmmmmmm ? [ccccmmccccccmmcc ]? (S4) […]
# P. aeruginosa PAO1 = test: Half maximal inhibitory concentration (IC50), planktonic growth (CFU/mL); assay type: cell-based; conditions: M63 media, 18 h
# Experimental: Measurement of Half Maximal Inhibitory Concentration (IC50). IC50 values were determined as reported earlier13 with some modifications. Compound stock solutions in DMSO (100 mM and 10 mM) were prepared from powd er. To prep are the cell susp ensions utilized in the measu rements, starter cultures o f P. aeru ginosa wer e diluted to an optical density at 600 nm (OD600) = 0.005 in fresh LB media (5 mL) and then cultured at 37°C and 220 rpm for 4 h prior to diluting to an OD600 = 0.0001 in M63. A small volume of compound stock solution w as further diluted in DMSO to 30 µL and then diluted in M63 cell suspension to a final volume of 2.0 mL. The resultant solution was placed in a well of a 96-well plate and then serially 2-fold diluted in M63 cell suspension to produce 6 distinct com pound concent rations, each with 1.5% DMSO. Th e plate was co ver ed and incubated for 18 h at 35 °C in a Synergy H1 plate reader (Biotek). The resultant cell cultures were serially diluted in PBS and then plated on PI Agar plates (PIA; BD biosciences) for counting viable cells (CFU/mL). The % growth was calculated from the ratio CFU/mL(t reat ed )/CFU/mL(untreated control). To calculate the IC50 values, the % growth was plotted as a function of compound concentration expressed as log[compound] ( µM), and fitted to equation S1 describing the sigmoid- shaped response pattern, 14 where b is the slope factor, max is the upper asymptote (plateau), and min is the lower asymptote. IC 50 values are the average and standard deviation from three independent experiments , each conducted with thr ee techni cal replicates.
# A. baumannii 5075 = test: MIC, broth microdilution in M63 media; assay type: cell-based
# Experimental: (§1) Measurement of Minimum Inhibitory Concentrations (MIC). The MIC of compounds and select ed antibiotics against three strains of A. baumannii (5075, ATCC 17988, and ATCC 19606) were determined via the broth microdilution method according to Clinical and Laboratory Standard Instit ute (CLSI) guidelines,15 but culturing […]
# (§2) To establish a 2-fold dilution series of compound, 985 μ L of diluted cells was mixed with 15 μ L of compound […]
# (§3) dissolved in DMSO, such that the resultant solution had the highest concentration of compound or antibiotic tested and 1.5% DMSO. To carry out the serial dilution from the highest compound concentration, a 150 μ L solution of higher concentration compound or antibiotic was mixed with 150 μ L of cell suspension containing 1.5% DMSO in the wells of a 96 well plate.
# (§4) Th e 96 well plate was in cubated for 20 hat 35 °C with continuous orbital shaking (205 cpm) in an Epoch2 microplate reader (BioTek), monitoring the growth by […]
# (§5) following the OD600. […]
# (§6) FFFFFF = MMMMMMAA iiii ccllccbbiiiicccciilliiMMMMMMAA+ MMMMMMBB iiii ccllccbbiiiicccciilliiMMMMMMBB S2 Time Kill Assays. Time-kill assays were performed with A. baumannii 507 5 by the broth macro- dilution method in M63- medium containing 1.5% DMSO. An overnight culture was diluted to approximately 5 x10^5 CFU/mL in fresh M63 media. The test solutions were prepared by adding compound (KM-5- 35, or KM-5- 25) dissolved in DMSO to 5 mL of diluted cell suspension to yield a solution of the desired compound concentration and 1.5% DMSO, or by the addition of antibiotic dissolved in water and a small volume of DMSO to produce the desired
# A. baumannii ATCC 17978 = test: MIC, broth microdilution in M63 media; assay type: cell-based
# Experimental: as §1, §2, §3, §4, §5, §6
# A. baumannii ATCC 19606 = test: MIC, broth microdilution in M63 media; assay type: cell-based
# Experimental: as §1, §2, §3, §4, §5, §6
# [2] = M63 media with 1.5% DMSO, 35 °C, aqueous buffer, kinetic from dmso stock
# [3] = Pseudomonas aeruginosa, PAO1, planktonic cells
# [4] = Acinetobacter baumannii, 5075, 20 h
# [5] = Acinetobacter baumannii, ATCC17978, 20 h
# [6] = Acinetobacter baumannii, ATCC19606, 20 h
SMILES,solubility at 4 h [1],Kd (recombinant Pa BfrB),"IC50, P. aeruginosa PAO1 (P. aeruginosa PAO1; planktonic cells)","MIC, A. baumannii 5075 (A. baumannii 5075; 20 h)","MIC, A. baumannii 17978 (A. baumannii ATCC 17978; 20 h)","MIC, A. baumannii 19606 (A. baumannii ATCC 19606; 20 h)",MIC (A. baumannii 5075; 20 h),MIC (A. baumannii ATCC 17978; 20 h),MIC (A. baumannii ATCC 19606; 20 h),IC50 (P. aeruginosa PAO1; planktonic cells),"solubility at 4 h [1, 2]",IC50 (P. aeruginosa PAO1; [3]),MIC (A. baumannii 5075; [4]),MIC (A. baumannii ATCC 17978; [5]),MIC (A. baumannii ATCC 19606; [6])
O=C1NC(=O)c2c(NCc3ccc4c(c3)COC4)cccc21 [SB-17-80],20 µM,11 ± 3 µM,Not active,Not active,Not active,Not active,–,–,–,–,–,–,–,–,–
O=C1NC(=O)c2c(NCc3cccc(Br)c3O)cccc21 [EB-5-73],40 µM,7 ± 2 µM,Not active,–,–,–,> 40 µM,40 µM,> 40 µM,–,–,–,–,–,–
O=C1NC(=O)c2c(NCc3cc(Cl)c(O)cc3O)cccc21 [SB-16-160],80 µM,77 ± 10 µM,–,–,–,–,> 80 µM,> 80 µM,> 80 µM,45 ± 6 µM,–,–,–,–,–
O=C1NC(=O)c2c(NCc3cc(Br)c(F)cc3O)cccc21 [SB-16-112],30 µM,2 ± 0.6 µM,–,–,–,–,20 µM,20 µM,20 µM,14 ± 3 µM,–,–,–,–,–
CC(C)(C)c1ccc(O)c(CNc2cccc3c2C(=O)NC3=O)c1 [SB-16-53],–,1 ± 0.2 µM,–,–,–,–,–,–,–,–,30 µM,12 ± 6 µM,30 µM,30 µM,30 µM
O=C1NC(=O)c2c(NCc3cccc4c3CCN4)cccc21 [SB-17-140],–,37 ± 1 µM,Not active,–,–,–,–,–,–,–,100 µM,–,> 100 µM,> 100 µM,> 100 µM
O=C1NC(=O)c2c(NCc3cc(F)ccc3O)cccc21 [JAG-5-7],–,24 ± 6 µM,–,–,–,–,–,–,–,–,180 µM,83 ± 19 µM,60 µM,60 µM,60 µM
O=C1NC(=O)c2c(NCc3c(O)cccc3Cl)cccc21 [KM-5-29],60 µM,18 ± 3 µM,–,–,–,–,> 60 µM,> 60 µM,> 60 µM,36 ± 5 µM,–,–,–,–,–
Cc1cc(CNc2cccc3c2C(=O)NC3=O)c(O)cc1Br [SB-16-183],20 µM,3 ± 0.6 µM,–,–,–,–,20 µM,20 µM,> 20 µM,13 ± 1 µM,–,–,–,–,–
O=C1NC(=O)c2c(NCc3cccc(Cl)c3O)cccc21 [KM-5-30],80 µM,11 ± 3 µM,–,–,–,–,> 80 µM,> 80 µM,> 80 µM,57 ± 2 µM,–,–,–,–,–
O=C1NC(=O)c2c(NCc3cccc(F)c3O)cccc21 [EB-5-80],100 µM,49 ± 7 µM,Not active,–,–,–,> 100 µM,> 100 µM,> 100 µM,–,–,–,–,–,–
"O=C1NC(=O)c2c(NCc3cc(Cl)ccc3O)cccc21 [KM-5-25, 4-((5-Chloro-2-hydroxybenzyl)amino)isoindoline-1,3-dione]",80 µM,10 ± 2 µM,–,–,–,–,40 µM,40 µM,30 µM,31 ± 7 µM,–,–,–,–,–
